For the assay, the system named is multiresistant Dd2 strain of Plasmodium falciparum. Put plainly: Antiplasmodial activity against Dd2 strain of Plasmodium falciparum ([8-3H]hypoxanthine incorporation). The class given is cell-based. As to conditions: 66 h, P. falciparum Dd2, 48 h + 18 h with [8-3H]hypoxanthine, 50% parasite growth inhibition, read-out: Antiplasmodia activity (IC50 class). As for the experimental part:
For the determination of the antiplasmodial activity of the compounds described above, the multiresistant Dd2 strain of Plasmodium falciparum was used. The incorporation of [8-^3H]hypoxanthine into the parasitic nucleic acids was measured. The plasmodia were incubated at 0.3% parasitaemia and an erythrocyte haematocrit of 2.5% in the presence of different concentrations of the compounds in a final volume of 200 μl. The medium employed was RPMI 1640 which contained 10% of heat-treated human serum and 3 mg/l of gentamycin. In the incubations, the concentrations of the compounds varied from 0.001 to 100 μM. After 48 h, each batch was treated with 50 μl of [8-^3H]hypoxanthine (1 mCi/ml) and incubated for a further 18 h. The cells were filtered off, washed and suspended in 20 μl of scintillation fluid. The radioactive hypoxanthine absorbed by the parasites was then quantified using a scintillation counter. The results were presented graphically and the IC50 value was determined using a fitting function. The value IC50, the ‘inhibition constant’, indicates the value in μMol/l at which 50% parasite growth inhibition occurs (R. E. Desjardins, et al., Antimicrobiol. Agent Chemother. 16, pp. 710-718, 1979; J. D. Chulay, et al., Exp. Parasitol. 55, pp. 138-146, 1983).

Where only a bound is given, the exact number is not on record here.

One may read the IC50 as the concentration at which inhibition is half-maximal. `CCCCN1CCN(C(=N)c2cccc(NC(=O)Nc3ccc(S(=O)(=O)NCc4c(F)ccc(F)c4F)cc3)c2)CC1` [Compound 35, 4-(3-(3-((4-butylpiperazin-1-yl)(imino)methyl)phenyl)ureido)-N-(2,3,6-trifluorobenzyl)benzenesulfonamide]: the IC50 lay within 210 to 990 nM.
The same measure for `CCCCN1CCN(C(=N)c2cccc(NC(=O)Nc3ccc(S(=O)(=O)NCc4ccccc4)cc3)c2)CC1` [Compound 36, N-benzyl-4-(3-(3-((4-butylpiperazin-1-yl)(imino)methyl)phenyl)ureido)benzenesulfonamide]: 210 to 990 nM; for `C=CCN1CCN(C(=N)c2cccc(NC(=O)Nc3ccc(S(=O)(=O)NCc4ccc(S(N)(=O)=O)cc4)cc3)c2)CC1` [Compound 39, 4-(3-(3-((4-allylpiperazin-1-yl)(imino)methyl)phenyl)ureido)-N-(4-sulfamoylbenzyl)benzenesulfonamide]: less than 20 nM.
On to `CCCCN1CCN(C(=N)c2cccc(NC(=O)Nc3ccc(S(=O)(=O)NNc4ccc(S(N)(=O)=O)cc4)cc3)c2)CC1` [Compound 40, 4-(2-(4-(3-(3-((4-butylpiperazin-1-yl)(imino)methyl)phenyl)ureido)phenylsulfonyl)hydrazinyl)benzenesulfonamide], for which the IC50 is no less than 1000 nM.
For `CCCCN1CCN(C(=N)c2cccc(NC(=O)Nc3ccc(S(=O)(=O)NC(C)c4ccc(S(N)(=O)=O)cc4)cc3)c2)CC1` (stereo not drawn) [Compound 42, 4-(3-(3-((4-butylpiperazin-1-yl)(imino)methyl)phenyl)ureido)-N-(1-(4-sulfamoylphenyl)ethyl)benzenesulfonamide], the IC50 is 210 to 990 nM.
The same measure for `N=C(c1cccc(NC(=O)Nc2ccc(S(=O)(=O)NCc3ccc(S(N)(=O)=O)cc3)cc2)c1)N1CCN(Cc2ccncc2)CC1` [Compound 45, 4-(3-(3-(imino (4-(pyridin-4-ylmethyl)piperazin-1-yl)methyl)phenyl)ureido)-N-(4-sulfamoylbenzyl)benzenesulfonamide]: 210 to 990 nM.
Regarding `N=C(c1cccc(NC(=O)Nc2ccc(S(=O)(=O)NCc3ccc(S(N)(=O)=O)cc3)cc2)c1)N1CCCC1` [Compound 46, 4-(3-(3-(imino(pyrrolidin-1-yl)methyl)phenyl)ureido)-N-(4-sulfamoylbenzyl)benzenesulfonamide], the IC50 lay within 20 to 200 nM.
`CCN(CC)CCN(C)C(=N)c1cccc(NC(=O)Nc2ccc(S(=O)(=O)NCc3ccc(S(N)(=O)=O)cc3)cc2)c1` [Compound 47, N-(2-(diethylamino)ethyl)-N-methyl-3-(3-(4-(N-(4-sulfamoylbenzyl)sulfamoyl)phenyl)ureido)benzimidamide]: the IC50 was in the range of 20 to 200 nM.
The same measure for `N=C(c1cccc(NC(=O)Nc2ccc(S(=O)(=O)NCc3ccc(S(N)(=O)=O)cc3)cc2)c1)N1CCC(O)CC1` [Compound 48, 4-(3-(3-((4-hydroxypiperidin-1-yl)(imino)methyl)phenyl)ureido)-N-(4-sulfamoylbenzyl)benzenesulfonamide]: 20 to 200 nM; for `CN(C)C1CCN(C(=N)c2cccc(NC(=O)Nc3ccc(S(=O)(=O)NCc4ccc(S(N)(=O)=O)cc4)cc3)c2)C1` (stereo not drawn) [Compound 49, 4-(3-(3-((3-(dimethylamino)pyrrolidin-1-yl)(imino)methyl)phenyl)ureido)-N-(4-sulfamoylbenzyl)benzenesulfonamide]: 20 to 200 nM.
The same measure for `N=C(c1cccc(NC(=O)Nc2ccc(S(=O)(=O)NCc3ccc(S(N)(=O)=O)cc3)cc2)c1)N1CCCC1CN1CCCC1` (stereo not drawn) [Compound 50, 4-(3-(3-(imino(2-(pyrrolidin-1-ylmethyl)pyrrolidin-1-yl)methyl)phenyl)ureido)-N-(4-sulfamoylbenzyl)benzenesulfonamide]: 20 to 200 nM; for `CC(C)(C)OC(=O)N1CCN(C(=N)c2cccc(NC(=O)Nc3ccc(S(=O)(=O)NCc4ccc(S(N)(=O)=O)cc4)cc3)c2)CC1` [Compound 51, tert-butyl 4-(imino(3-(3-(4-(N-(4-sulfamoylbenzyl)sulfamoyl)phenyl)ureido)phenyl)methyl)piperazine-1-carboxylate]: 210 to 990 nM.

The record behind these values is patent US8343963B2, “Sulfamoyl-phenyl-ureido compounds and their use as medicament” (4SC AG, priority 2009, dated 2013).
